These compounds were tested on E. coli (assay: Antibacterial activity: Minimum Inhibitory Concentration). Conditions: Escherichia coli, Day 1, 37° C., 24 hours.
Format: cell-based, Escherichia coli ATCC 8739
Description: (§1) The antimicrobial activity was determined by inoculation of the test microorganism into suitable growth media containing solutions of the compounds at concentrations of 100, 50, 10, 5, 1.0, 0.5 and 0.1 μg/ml. The reference antibiotics used were Gentamicin for the antibacterial tests and Amphotericin B for the antimycotic and antifungal tests. After incubation the antimicrobial activity was recorded as the Minimal Inhibitory Concentration (M.I.C.), i.e., the lowest concentration preventing macroscopically visible growth, for each test compound against each organism.
(§2) An initial solution of each formula (I) compound to be tested in sterile distilled water was prepared at a concentration of 1000 μg/ml. With appropriate dilutions using sterile distilled water, additional solutions were prepared at concentrations of 500, 100, 50, 10, 5 and 1 μg/ml.
(§3) They were cultured and maintained on Tryptone Soy Agar (Oxoid CM 131), with the addition of 10% horse blood for the S. pyogenes.
(§4) To prepare the organisms as inocula for the test, slopes of this medium were streaked with the organisms and incubated at 37° C. for 24 hours. 4.5 Ml volumes of Brian-Heart Infusion Broth (Oxoid CM 225) were then inoculated with a platinum loop from the agar slope cultures and incubated for 24 hours at 37° C. The final inocula were then prepared by adding 0.1 ml aliquots of the Brain-Heart Infusion Broth cultures to 100 ml volumes of sterile physiological saline.
(§5) (a) For the test on each of the bacterial strains and each of the test and reference compounds, a series of 8 tubes containing 4.5 ml volumes of Brain-Heart Infusion Broth (Oxoid CM 225) were prepared. To 7 of these were added 0.5 ml volumes of the final solutions of the test compouns, giving final concentrations in the broths of 100, 50, 10, 5, 1.0, 0.5 and 0.1 μg/ml. To the eighth tube in each series was added 0.5 ml of the solvent used and diluted as for the preparation of the 1000 μg/ml solution of the compound. This tube was used as the growth control. The tubes were inoculated with 0.02 ml aliquots of the inocula prepared in accordance with "(a) Bacteria" above, and incubated at 37° C. for 24 hours. The tubes were then examined for evidence of bacterial growth as shown by turbidity of the medium and the lowest concentration of the test compound which prevented bacterial growth was recorded as the Minimal Inhibitory Concentration. This test procedure was carried out on two separate days.

| SMILES | MIC [µg/mL] |
| --- | --- |
| CCCCCCCCCCCCCCn1ccc[n+]1C [Example 3-G, 2-methyl-1-tetradecyl-pyrazolium methosulfate] | 10 |
| CCCCCCCCCCCC[n+]1c(C)cc(C)n1Cc1ccc(Cl)cc1Cl.[Br-] [Example 6-B, 2-(2,4-dichlorobenzyl)-3,5-dimethyl-1-dodecyl-pyrazolium bromide] | 10 |
| CCCCCCCCCCCCCCCC[n+]1c(C)cc(C)n1C.Cc1ccc(S(=O)(=O)[O-])cc1 [Example 6-C, 1-hexadecyl-2,3,5-trimethylpyrazolium p-toluene sulfonate] | 10 |

Same assay, conditions: Escherichia coli, Day 2, 37° C., 24 hours

| SMILES | MIC [µg/mL] |
| --- | --- |
| CCCCCCCCCCCCCCn1ccc[n+]1C [Example 3-G, 2-methyl-1-tetradecyl-pyrazolium methosulfate] | 10 |
| CCCCCCCCCCCC[n+]1c(C)cc(C)n1Cc1ccc(Cl)cc1Cl.[Br-] [Example 6-B, 2-(2,4-dichlorobenzyl)-3,5-dimethyl-1-dodecyl-pyrazolium bromide] | 5 |
| CCCCCCCCCCCCCCCC[n+]1c(C)cc(C)n1C.Cc1ccc(S(=O)(=O)[O-])cc1 [Example 6-C, 1-hexadecyl-2,3,5-trimethylpyrazolium p-toluene sulfonate] | 10 |

The compounds below were run on P. mirabilis in the same assay as above. Conditions: Proteus mirabilis, read-out: Minimum Inhibitory Concentration.
Format: cell-based, Proteus mirabilis NCTC 8559
Description: as §1, §2, §3, §4, §5

| SMILES | MIC [µg/mL] |
| --- | --- |
| CCCCCCCCCCCCCCCC[n+]1c(C)cc(C)n1C.Cc1ccc(S(=O)(=O)[O-])cc1 [Example 6-C, 1-hexadecyl-2,3,5-trimethylpyrazolium p-toluene sulfonate] | 50 |

Same assay, conditions: Proteus mirabilis; P. mirabilis, Day 1; 37° C., 24 hours; read-out: Minimum Inhibitory Concentration

| SMILES | MIC [µg/mL] |
| --- | --- |
| CCCCCCCCCCCCCCn1ccc[n+]1C [Example 3-G, 2-methyl-1-tetradecyl-pyrazolium methosulfate] | 50 |
| CCCCCCCCCCCC[n+]1c(C)cc(C)n1Cc1ccc(Cl)cc1Cl.[Br-] [Example 6-B, 2-(2,4-dichlorobenzyl)-3,5-dimethyl-1-dodecyl-pyrazolium bromide] | 50 |

Same assay, conditions: Proteus mirabilis; P. mirabilis, Day 2; 37° C., 24 hours; read-out: Minimum Inhibitory Concentration

| SMILES | MIC [µg/mL] |
| --- | --- |
| CCCCCCCCCCCCCCn1ccc[n+]1C [Example 3-G, 2-methyl-1-tetradecyl-pyrazolium methosulfate] | 50 |
| CCCCCCCCCCCC[n+]1c(C)cc(C)n1Cc1ccc(Cl)cc1Cl.[Br-] [Example 6-B, 2-(2,4-dichlorobenzyl)-3,5-dimethyl-1-dodecyl-pyrazolium bromide] | 50 |

What follows are compounds tested on C. tropicalis (assay: Antimycotic activity: Minimum Inhibitory Concentration). Conditions: Candida tropicalis, pH 5.5, C. tropicalis, Day 1; pH 5.5, 37° C., 72 hours; read-out: Minimum Inhibitory Concentrations.
Format: cell-based, Candida tropicalis NCPF 3111
Description: as §1, §2
The two species, C. albicans and C. tropicalis, were maintained on Sabouraud-Dextrose Agar (Oxoid CM41) and cultures for the preparation of the inoculum were incubated on this agar at 37° C. for 48 hours. 4.5 Ml volumes of citric acid-phosphate buffer pH 5.5 plus Yeast-Nitrogen Base (Difco 0392-15) were then inoculated from the agar cultures and incubated at 37° C. for 48 hours. 0.1 Ml aliquots of these cultures were then added to 100 ml volumes of sterile physiological saline to give the final inocula.
(b) For the tests on each of the C. albicans, C. tropicalis and C. neoformans strains and each of the test and reference compounds, a series of 8 tubes containing 4.5 ml volumes of citric acid-phosphate buffer pH 5.5 plus Yeast-Nitrogen Base (Difco 0392-15) were prepared. To 7 of these were added 0.5 ml volumes of the final solutions of the test compounds, giving final concentrations in the broths of 100, 50, 10, 5, 1.0, 0.5 and 0.1 μg/ml. To the eighth tube in each series was added 0.5 ml of the solvent used and diluted as for the preparation of the 1000 μg/ml solution of the compound. This tube was used as the growth control. The tubes were then inoculated with 0.1 ml aliquots of the inocula prepared as in "(b) Fungi" above. The tubes inoculated with the C. albicans and C. tropicalis were inoculated at 37° C. for 72 hours and the tubes inoculated with the C. neoformans straim were incubated at 30° C. for 72 hours. […] The tubes were then examined for evidence of growth as shown by turbidity of the medium and the lowest concentration of the test compound which prevented fungal growth was recorded as the Minimal Inhibitory Concentration. This test procedure was carried out on two separate days.

| SMILES | MIC [µg/mL] |
| --- | --- |
| CCCCCCCCCCCCCCn1ccc[n+]1C [Example 3-G, 2-methyl-1-tetradecyl-pyrazolium methosulfate] | 0.5 |
| CCCCCCCCCCCC[n+]1c(C)cc(C)n1Cc1ccc(Cl)cc1Cl.[Br-] [Example 6-B, 2-(2,4-dichlorobenzyl)-3,5-dimethyl-1-dodecyl-pyrazolium bromide] | 1 |

Same assay, conditions: Candida tropicalis, pH 5.5, C. tropicalis, Day 2; pH 5.5, 37° C., 72 hours; read-out: Minimum Inhibitory Concentrations

| SMILES | MIC [µg/mL] |
| --- | --- |
| CCCCCCCCCCCCCCn1ccc[n+]1C [Example 3-G, 2-methyl-1-tetradecyl-pyrazolium methosulfate] | 0.5 |
| CCCCCCCCCCCC[n+]1c(C)cc(C)n1Cc1ccc(Cl)cc1Cl.[Br-] [Example 6-B, 2-(2,4-dichlorobenzyl)-3,5-dimethyl-1-dodecyl-pyrazolium bromide] | 1 |

Same assay, conditions: Candida tropicalis, pH 5.5, read-out: Minimum Inhibitory Concentrations, C. tropicalis, Day 1; pH 5.5, 37° C., 72 hours

| SMILES | MIC [µg/mL] |
| --- | --- |
| CCCCCCCCCCCCCCCC[n+]1c(C)cc(C)n1C.Cc1ccc(S(=O)(=O)[O-])cc1 [Example 6-C, 1-hexadecyl-2,3,5-trimethylpyrazolium p-toluene sulfonate] | 5 |

What follows are compounds tested on T. mentagrophytes (assay: Antifungal activity: Minimum Inhibitory Concentration). Conditions: T. mentagrophytes, Day 1; 27° C., one week.
Format: cell-based, Trichophyton mentagrophytes NCPF 410
Description: as §1, §2
T. mentagrophytes NCPF 410
(§6) The A. corymbifera, A. fumigatus, S. schenkii, T. rubrum, T. mentagrophytes, M. canis and P. verrucosa strains were all maintained on Sabouraud-Dextrose Agar (Oxoid CM 41) by incubating for 14 days at 27° C. To prepare the inocula 30 ml volumes of Sabouraud-Liquid medium (Oxoid CM 147) were inoculated from the agar cultures and incubated at 27° C. until heavy uniform growth resulted. The mycelial growth was then broken up by shaking with glass beads.
(§7) 1 Ml aliquots were removed from each of the cultures for the purpose of making viable counts and the cultures were then held at 4° C. The viable counts were made by preparing serial ten-fold dilutions of the cultures in sterile physiological saline and spreading on plates of Sabouraud-Dextrose Agar (Oxoid CM 41) which were then incubated at 27° C. for 14 days. When the viable counts had confirmed that each of the inocula contained approximately 10^6 colony forming units (C.F.U.) per ml the cultures were withdrawn from the refrigerator and used as the inocula for the tests.
(§8) (c) For the tests on each of the remaining seven strains and each of the test and reference compounds, a series of 8 tubes containing 4.5 ml volumes of Sabouraud-Liquid Medium (Oxoid CM 147) were prepared. To 7 of these were added 0.5 ml volumes of the final solutions of the test compounds, giving final concentrations in the broths of 100, 50, 10, 5, 1.0, 0.5 and 0.1 μg/ml. To the eighth tube in each series was added 0.5 ml of the solvent used and diluted as for the preparation of the 500 μg/ml solution of the compound. This tube was used as a growth control. The tubes were then inoculated with 0.1 ml aliquots of the inocula prepared as in "(b) Fungi" above. The tubes were then incubated at 27° C. with continuous shaking for a period of one week. The tubes were then examined for evidence of growth as shown by the presence of mycelial growth in the medium and the lowest concentration of the test compound which prevented fungal growth was recorded as the Minimal Inhibitory Concentration. This test procedure was carried out on two separate days.

| SMILES | Minimum Inhibitory Concentration [µg/mL] |
| --- | --- |
| CCCCCCCCCCCCCCCC[n+]1c(C)cc(C)n1C.Cc1ccc(S(=O)(=O)[O-])cc1 [Example 6-C, 1-hexadecyl-2,3,5-trimethylpyrazolium p-toluene sulfonate] | 5 |

Same assay, conditions: Trichophyton mentagrophytes, T. mentagrophytes, Day 1; 27° C., one week; read-out: Minimum Inhibitory Concentration

| SMILES | MIC [µg/mL] |
| --- | --- |
| CCCCCCCCCCCCCCn1ccc[n+]1C [Example 3-G, 2-methyl-1-tetradecyl-pyrazolium methosulfate] | 1 |
| CCCCCCCCCCCC[n+]1c(C)cc(C)n1Cc1ccc(Cl)cc1Cl.[Br-] [Example 6-B, 2-(2,4-dichlorobenzyl)-3,5-dimethyl-1-dodecyl-pyrazolium bromide] | 1 |

Same assay, conditions: Trichophyton mentagrophytes, T. mentagrophytes, Day 2; 27° C., one week; read-out: Minimum Inhibitory Concentration

| SMILES | MIC [µg/mL] |
| --- | --- |
| CCCCCCCCCCCCCCn1ccc[n+]1C [Example 3-G, 2-methyl-1-tetradecyl-pyrazolium methosulfate] | 5 |
| CCCCCCCCCCCC[n+]1c(C)cc(C)n1Cc1ccc(Cl)cc1Cl.[Br-] [Example 6-B, 2-(2,4-dichlorobenzyl)-3,5-dimethyl-1-dodecyl-pyrazolium bromide] | 1 |

What follows are compounds tested on M. canis in the same assay as above. Conditions: M. canis, Day 2; 27° C., one week.
Format: cell-based, Microsporum canis NCPF 351
Description: as §1, §2, §6, §7, §8

| SMILES | Minimum Inhibitory Concentration [µg/mL] |
| --- | --- |
| CCCCCCCCCCCCCCCC[n+]1c(C)cc(C)n1C.Cc1ccc(S(=O)(=O)[O-])cc1 [Example 6-C, 1-hexadecyl-2,3,5-trimethylpyrazolium p-toluene sulfonate] | 5 |

Same assay, conditions: Microsporum canis, M. canis, Day 1; 27° C., one week; read-out: Minimum Inhibitory Concentration

| SMILES | MIC [µg/mL] |
| --- | --- |
| CCCCCCCCCCCCCCn1ccc[n+]1C [Example 3-G, 2-methyl-1-tetradecyl-pyrazolium methosulfate] | 10 |
| CCCCCCCCCCCC[n+]1c(C)cc(C)n1Cc1ccc(Cl)cc1Cl.[Br-] [Example 6-B, 2-(2,4-dichlorobenzyl)-3,5-dimethyl-1-dodecyl-pyrazolium bromide] | 5 |

Same assay, conditions: Microsporum canis, M. canis, Day 2; 27° C., one week; read-out: Minimum Inhibitory Concentration

| SMILES | MIC [µg/mL] |
| --- | --- |
| CCCCCCCCCCCCCCn1ccc[n+]1C [Example 3-G, 2-methyl-1-tetradecyl-pyrazolium methosulfate] | 5 |
| CCCCCCCCCCCC[n+]1c(C)cc(C)n1Cc1ccc(Cl)cc1Cl.[Br-] [Example 6-B, 2-(2,4-dichlorobenzyl)-3,5-dimethyl-1-dodecyl-pyrazolium bromide] | 5 |

What follows are compounds tested on P. verrucosa in the same assay as above. Conditions: P. verrucosa, Day 2; 27° C., one week.
Format: cell-based, Phialophore verrucosa NCPF 1119
Description: as §1, §2, §6, §7, §8

| SMILES | Minimum Inhibitory Concentration [µg/mL] |
| --- | --- |
| CCCCCCCCCCCCCCCC[n+]1c(C)cc(C)n1C.Cc1ccc(S(=O)(=O)[O-])cc1 [Example 6-C, 1-hexadecyl-2,3,5-trimethylpyrazolium p-toluene sulfonate] | 5 |

Same assay, conditions: Phialophora verrucosa, P. verrucosa, Day 1; 27° C., one week; read-out: Minimum Inhibitory Concentration

| SMILES | MIC [µg/mL] |
| --- | --- |
| CCCCCCCCCCCCCCn1ccc[n+]1C [Example 3-G, 2-methyl-1-tetradecyl-pyrazolium methosulfate] | 5 |
| CCCCCCCCCCCC[n+]1c(C)cc(C)n1Cc1ccc(Cl)cc1Cl.[Br-] [Example 6-B, 2-(2,4-dichlorobenzyl)-3,5-dimethyl-1-dodecyl-pyrazolium bromide] | 5 |

Same assay, conditions: Phialophora verrucosa, P. verrucosa, Day 2; 27° C., one week; read-out: Minimum Inhibitory Concentration

| SMILES | MIC [µg/mL] |
| --- | --- |
| CCCCCCCCCCCCCCn1ccc[n+]1C [Example 3-G, 2-methyl-1-tetradecyl-pyrazolium methosulfate] | 5 |
| CCCCCCCCCCCC[n+]1c(C)cc(C)n1Cc1ccc(Cl)cc1Cl.[Br-] [Example 6-B, 2-(2,4-dichlorobenzyl)-3,5-dimethyl-1-dodecyl-pyrazolium bromide] | 5 |

— US4207326A, “Antimicrobial quaternary pyrazole derivatives” (Cilag-Chemie A.G., priority 1979, dated 1980)
